For one experiment, the target named is BRD4-BD12 (1-477) (Homo sapiens (Human), UniProt O60885). Description: Alphascreen binding assay BRD4-BD12. The settings on record: BRD4(1 2) H4; read-out: Biochemical activity (IC50 μM) BRD4(1 2) H4. The procedure, abridged:
(§1)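 First, compound was preincubated 1 h at room temperature with the His-tagged BRD4 protein (BD1 44-164 or tandem BD12 1-477) and acetylated H4 peptide. Next, donor and acceptor beads were added at 7.5 μg/ml final. After 30 min, AlphaScreen emission was recorded.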
(Bead proximity is the source of the signal in Alpha formats.)

The target of the next experiment is BRD4-BD1 (44-164) (Homo sapiens (Human), UniProt O60885). As to the kind of experiment: Alphascreen binding assay BRD4-BD1. The settings on record: BRD4(1) H4; read-out: Biochemical activity (IC50 μM) BRD4(1) H4. The method in brief: as §1
In another experiment the test system is MV-4-11 cells. Description: Oncology cell growth assay MV-4-11 (CellTiter Glo). Type of experiment: cell-based. The method in brief: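 MV-4-11 AML cells (MLL-AF4), 3000 per well, exposed to 8-point 1:3 compound titration from 10 μM top concentration (0.2% DMSO) for 72 h. Viability by CellTiter Glo luminescence, normalized to DMSO controls; pIC50 from four-parameter curve fit.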

Another experiment deals with bromodomain. Description: at least one of the bromodomain cell assays of Example 57. The settings on record: read-out: IC50 in at least one of the bromodomain cell assays. It counts as cell-based.
[1] abbreviates: Homo sapiens, MV4-11, 72 h; read-out: Cell activity (IC50 μM) MV-4-11 3d-Growth.
Where [2] appears, read: at least one of the bromodomain cell assays described in Example 57.

For 23 molecules, IC50 results are on record in US10519177B2, “Heterocyclic compounds and uses thereof” (Plexxikon Inc., priority 2013, dated 2019).

For orientation: IC50 means the midpoint of a concentration-inhibition curve.

Structures are written as SMILES. Where two headings read alike, the source gives them in different places.

For `Cc1noc(C)c1-c1cnc2c(-c3cnc(C4CC4)nc3)cn(C(C)c3ccccc3)c2c1` (centres unmarked) [P-0278, 4-[3-(2-cyclopropylpyrimidin-5-yl)-1-(1-phenylethyl)pyrrolo[3,2-b]pyridin-6-yl]-3,5-dimethyl-isoxazole], the half-maximal inhibitory concentration (IC50) at BRD4-BD12 (1-477) is below 1 µM; at BRD4-BD1 (44-164), below 1 µM; in the experiment on MV-4-11 cells (setting [1]), below 1 µM; in the experiment with bromodomain (setting [2]), below 10000 nM.

In the case of `Cc1noc(C)c1-c1cnc2c(-c3cnc(N)cn3)cn(C(C)c3ccccc3)c2c1` (centres unmarked) [P-0279, 5-[6-(3,5-dimethylisoxazol-4-yl)-1-(1-phenylethyl)pyrrolo[3,2-b]pyridin-3-yl]pyrazin-2-amine], the 50% inhibitory concentration (IC50) at BRD4-BD12 (1-477) is below 1 µM; on BRD4-BD1 (44-164) it was below 1 µM; in the experiment on MV-4-11 cells (setting [1]), below 1 µM; in the experiment on bromodomain (setting [2]), below 10000 nM.

In the case of `Cc1noc(C)c1-c1cnc2c(Br)cn(C(CC#N)C3CCCC3)c2c1` (centres unmarked) [P-0280, 3-[3-bromo-6-(3,5-dimethylisoxazol-4-yl)pyrrolo[3,2-b]pyridin-1-yl]-3-cyclopentyl-propanenitrile], the IC50 was below 1 µM at BRD4-BD12 (1-477), below 1 µM at BRD4-BD1 (44-164), below 1 µM in the experiment on MV-4-11 cells (setting [1]) and below 10000 nM in the experiment on bromodomain (setting [2]).

`Cc1noc(C)c1-c1cnc2c(Br)cn(CC3CCC(F)(F)CC3)c2c1` [P-0281, 4-[3-bromo-1-[(4,4-difluorocyclohexyl)methyl]pyrrolo[3,2-b]pyridin-6-yl]-3,5-dimethyl-isoxazole]: the IC50 at BRD4-BD12 (1-477) is below 1 µM; at BRD4-BD1 (44-164) it was below 1 µM; in the experiment on MV-4-11 cells (setting [1]), below 1 µM; with bromodomain (setting [2]), below 10000 nM.

On to `Cc1noc(C)c1-c1cnc2ccn(CC3CCC(F)(F)CC3)c2c1` [P-0282, 4-[1-[(4,4-difluorocyclohexyl)methyl]pyrrolo[3,2-b]pyridin-6-yl]-3,5-dimethyl-isoxazole], for which the half-maximal inhibitory concentration (IC50) was 1 to 10 µM on BRD4-BD12 (1-477), below 1 µM at BRD4-BD1 (44-164), below 1 µM with MV-4-11 cells (setting [1]) and below 10000 nM in the experiment on bromodomain (setting [2]).

On to `Cc1oncc1-c1cnc2ccn(CC3CCC(F)(F)CC3)c2c1` [P-0283, 4-[1-[(4,4-difluorocyclohexyl)methyl]pyrrolo[3,2-b]pyridin-6-yl]-5-methyl-isoxazole], for which the IC50 on BRD4-BD12 (1-477) was 1 to 10 µM; on BRD4-BD1 (44-164) it was 1 to 10 µM; in the experiment on MV-4-11 cells (setting [1]), 1 to 10 µM; in the experiment on bromodomain (setting [2]), below 10000 nM.

Turning to `Oc1ccc(-c2cnc3ccn(CC4CCC(F)(F)CC4)c3c2)cn1` [P-0284, 5-[1-[(4,4-difluorocyclohexyl)methyl]pyrrolo[3,2-b]pyridin-6-yl]pyridin-2-ol], the half-maximal inhibitory concentration (IC50) is 1 to 10 µM on BRD4-BD12 (1-477), below 1 µM on BRD4-BD1 (44-164), 1 to 10 µM with MV-4-11 cells (setting [1]) and below 10000 nM with bromodomain (setting [2]).

Take `Cc1n[nH]c(C)c1-c1cnc2ccn(CC3CCC(F)(F)CC3)c2c1` [P-0285, l-[(4,4-difluorocyclohexyl)methyl]-6-(3,5-dimethyl-1H-pyrazol-4-yl)pyrrolo[3,2-b]pyridine]: the IC50 on BRD4-BD12 (1-477) is 10 to 200 µM; on BRD4-BD1 (44-164) it was 1 to 10 µM; in the experiment with MV-4-11 cells (setting [1]) it was 1 to 10 µM; with bromodomain (setting [2]), below 10000 nM.

With `Cc1n[nH]c(C)c1-c1cn(C(C)c2ccccc2)c2cc(-c3c(C)noc3C)cnc12` (centres unmarked) [P-0287, 4-[3-(3,5-dimethyl-1H-pyrazol-4-yl)-1-(1-phenylethyl)pyrrolo[3,2-b]pyridin-6-yl]-3,5-dimethyl-isoxazole], the IC50 is below 1 µM at BRD4-BD12 (1-477), below 1 µM on BRD4-BD1 (44-164), below 1 µM in the experiment with MV-4-11 cells (setting [1]) and below 10000 nM in the experiment on bromodomain (setting [2]).

`Cc1noc(C)c1-c1cnc2c(C#C[Si](C)(C)C)cn(C(C)c3ccccc3)c2c1` (centres unmarked) [P-0288, 2-[6-(3,5-dimethylisoxazol-4-yl)-1-(1-phenylethyl)pyrrolo[3,2-b]pyridin-3-yl]ethynyl-trimethyl-silane]: the half-maximal inhibitory concentration (IC50) on BRD4-BD12 (1-477) was below 1 µM; on BRD4-BD1 (44-164), below 1 µM; in the experiment with MV-4-11 cells (Homo sapiens, MV4-11, 72 h, read-out: Cell activity (IC50 μM) MV-4-11 3d-Growth), below 1 µM; in the experiment on bromodomain, below 10000 nM.

As for `C#Cc1cn(C(C)c2ccccc2)c2cc(-c3c(C)noc3C)cnc12` (centres unmarked) [P-0289, 4-[3-ethynyl-1-(1-phenylethyl)pyrrolo[3,2-b]pyridin-6-yl]-3,5-dimethyl-isoxazole], the half-maximal inhibitory concentration (IC50) is below 1 µM on BRD4-BD12 (1-477), below 1 µM on BRD4-BD1 (44-164), below 1 µM in the experiment on MV-4-11 cells (setting [1]) and below 10000 nM in the experiment on bromodomain (setting [2]).

On to `Cc1noc(C)c1-c1cnc2c(Cl)cn(C(CC#N)C3CCCC3)c2c1` (centres unmarked) [P-0290, 3-[3-chloro-6-(3,5-dimethylisoxazol-4-yl)pyrrolo[3,2-b]pyridin-1-yl]-3-cyclopentyl-propanenitrile], for which the IC50 on BRD4-BD12 (1-477) is below 1 µM; at BRD4-BD1 (44-164), below 1 µM; with MV-4-11 cells (setting [1]), below 1 µM; in the experiment with bromodomain (setting [2]), below 10000 nM.

Consider `Cc1nnn(C)c1-c1cnc2ccn(CC3CCC(F)(F)CC3)c2c1` [P-0291, l-[(4,4-difluorocyclohexyl)methyl]-6-(3,5-dimethyltriazol-4-yl)pyrrolo[3,2-b]pyridine], for which the concentration for half-maximal inhibition (IC50) is 10 to 200 µM on BRD4-BD12 (1-477), below 1 µM on BRD4-BD1 (44-164), 1 to 10 µM with MV-4-11 cells (setting [1]) and below 10000 nM with bromodomain (setting [2]).

In the case of `Cc1c(-c2cnc3ccn(CC4CCC(F)(F)CC4)c3c2)cnn1C` [P-0293, l-[(4,4-difluorocyclohexyl)methyl]-6-(1,5-dimethylpyrazol-4-yl)pyrrolo[3,2-b]pyridine], the IC50 on BRD4-BD12 (1-477) was 10 to 200 µM; at BRD4-BD1 (44-164), 10 to 200 µM; in the experiment with MV-4-11 cells (setting [1]), 10 to 200 µM; in the experiment with bromodomain (setting [2]), below 10000 nM.

As to `Cc1nc(C)c(-c2cnc3ccn(CC4CCC(F)(F)CC4)c3c2)s1` [P-0294, 5-[1-[(4,4-difluorocyclohexyl)methyl]pyrrolo[3,2-b]pyridin-6-yl]-2,4-dimethyl-thiazole], the half-maximal inhibitory concentration (IC50) on BRD4-BD12 (1-477) is below 1 µM; on BRD4-BD1 (44-164), 10 to 200 µM; with MV-4-11 cells (setting [1]), 1 to 10 µM; in the experiment on bromodomain (setting [2]) it was below 10000 nM.

For `Cc1noc(C)c1-c1cnc2c(-c3cnn(C4COC4)c3)cn(CC3CCC(F)(F)CC3)c2c1` [P-0295, 4-[1-[(4,4-difluorocyclohexyl)methyl]-3-[1-(oxetan-3-yl)pyrazol-4-yl]pyrrolo[3,2-b]pyridin-6-yl]-3,5-dimethyl-isoxazole], the half-inhibitory concentration (IC50) at BRD4-BD12 (1-477) is below 1 µM; on BRD4-BD1 (44-164) it was below 1 µM; in the experiment with MV-4-11 cells (setting [1]) it was below 1 µM; with bromodomain (setting [2]), below 10000 nM.

Regarding `Cc1noc(C)c1-c1cnc2c(-c3cnn(CCN4CCOCC4)c3)cn(CC3CCC(F)(F)CC3)c2c1` [P-0296, 4-[2-[4-[1-[(4,4-difluorocyclohexyl)methyl]-6-(3,5-dimethylisoxazol-4-yl)pyrrolo[3,2-b]pyridin-3-yl]pyrazol-1-yl]ethyl]morpholine], the IC50 at BRD4-BD12 (1-477) is below 1 µM; at BRD4-BD1 (44-164), below 1 µM; in the experiment with MV-4-11 cells (setting [1]), below 1 µM; with bromodomain (setting [2]), below 10000 nM.

Consider `Cc1noc(C)c1-c1cnc2c(-c3cnn(CC(C)C)c3)cn(CC3CCC(F)(F)CC3)c2c1` [P-0297, 4-[1-[(4,4-difluorocyclohexyl)methyl]-3-(1-isobutylpyrazol-4-yl)pyrrolo[3,2-b]pyridin-6-yl]-3,5-dimethyl-isoxazole], for which the half-inhibitory concentration (IC50) at BRD4-BD12 (1-477) was below 1 µM; on BRD4-BD1 (44-164), below 1 µM; in the experiment with MV-4-11 cells (setting [1]), below 1 µM; in the experiment with bromodomain (setting [2]), below 10000 nM.

Turning to `Cc1noc(C)c1-c1cnc2c(-c3cnn(CCC#N)c3)cn(CC3CCC(F)(F)CC3)c2c1` [P-0298, 3-[4-[1-[(4,4-difluorocyclohexyl)methyl]-6-(3,5-dimethylisoxazol-4-yl)pyrrolo[3,2-b]pyridin-3-yl]pyrazol-1-yl]propanenitrile], the IC50 is below 1 µM at BRD4-BD12 (1-477), below 1 µM on BRD4-BD1 (44-164), below 1 µM in the experiment on MV-4-11 cells (setting [1]) and below 10000 nM in the experiment with bromodomain (setting [2]).

Turning to `Cc1noc(C)c1-c1cnc2c(-c3cnn(Cc4ccccc4)c3)cn(CC3CCC(F)(F)CC3)c2c1` [P-0299, 4-[3-(1-benzylpyrazol-4-yl)-1-[(4,4-difluorocyclohexyl)methyl]pyrrolo[3,2-b]pyridin-6-yl]-3,5-dimethyl-isoxazole], the 50% inhibitory concentration (IC50) is below 1 µM on BRD4-BD12 (1-477), below 1 µM on BRD4-BD1 (44-164), below 1 µM in the experiment on MV-4-11 cells (setting [1]) and below 10000 nM in the experiment on bromodomain (setting [2]).

For the molecule `Cc1noc(C)c1-c1cnc2c(-c3c(C)nn(C)c3C)cn(C(C)c3ccccc3)c2c1` (centres unmarked) [P-0300, 3,5-dimethyl-4-[1-(1-phenylethyl)-3-(1,3,5-trimethylpyrazol-4-yl)pyrrolo[3,2-b]pyridin-6-yl]isoxazole], the IC50 on BRD4-BD12 (1-477) is below 1 µM; on BRD4-BD1 (44-164), below 1 µM; in the experiment with MV-4-11 cells (setting [1]), below 1 µM; in the experiment on bromodomain (setting [2]) it was below 10000 nM.

As to `Cc1noc(C)c1-c1cnc2c(-c3cnco3)cn(C(C)c3ccccc3)c2c1` (centres unmarked) [P-0301, 3,5-dimethyl-4-[3-oxazol-5-yl-1-(1-phenylethyl)pyrrolo[3,2-b]pyridin-6-yl]isoxazole], the IC50 on BRD4-BD12 (1-477) is below 1 µM; on BRD4-BD1 (44-164) it was below 1 µM; in the experiment on MV-4-11 cells (setting [1]), below 1 µM; in the experiment on bromodomain (setting [2]), below 10000 nM.

As for `Cc1noc(C)c1-c1cnc2c(C#CCO)cn(C(C)c3ccccc3)c2c1` (centres unmarked) [P-0302, 3-[6-(3,5-dimethylisoxazol-4-yl)-1-(1-phenylethyl)pyrrolo[3,2-b]pyridin-3-yl]prop-2-yn-1-ol], the IC50 at BRD4-BD12 (1-477) was below 1 µM; at BRD4-BD1 (44-164), below 1 µM; with MV-4-11 cells (setting [1]), below 1 µM; in the experiment on bromodomain (setting [2]), below 10000 nM.
